Assay results taken from patent US9856279B2 (AGIOS PHARMACEUTICALS, INC, priority 2011, dated 2018).

target: IDH1 R132H (Homo sapiens, UniProt O75874, R132H); test: Assay for IDH1 R132H inhibitors (NADPH/aKG, resazurin detection); type: biochemical; conditions: Table 3; enzyme assay, 50 minutes at room temperature; read-out: IC50 (IDH1 R132H Inhibition)
Summary of the method: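 Read-out is resorufin fluorescence (Ex544/Em590) 5 min after adding a 30 μM resazurin detection mix. Before that, mutant enzyme (0.2 μg/ml in its mix) ran 50 min at room temperature with compound, 8 uM NADPH and 2 mM aKG (mix levels) in Tris pH 7.5 with NaCl, MgCl2, BSA.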

Sequence of IDH1 R132H (O75874 whole entry R132H): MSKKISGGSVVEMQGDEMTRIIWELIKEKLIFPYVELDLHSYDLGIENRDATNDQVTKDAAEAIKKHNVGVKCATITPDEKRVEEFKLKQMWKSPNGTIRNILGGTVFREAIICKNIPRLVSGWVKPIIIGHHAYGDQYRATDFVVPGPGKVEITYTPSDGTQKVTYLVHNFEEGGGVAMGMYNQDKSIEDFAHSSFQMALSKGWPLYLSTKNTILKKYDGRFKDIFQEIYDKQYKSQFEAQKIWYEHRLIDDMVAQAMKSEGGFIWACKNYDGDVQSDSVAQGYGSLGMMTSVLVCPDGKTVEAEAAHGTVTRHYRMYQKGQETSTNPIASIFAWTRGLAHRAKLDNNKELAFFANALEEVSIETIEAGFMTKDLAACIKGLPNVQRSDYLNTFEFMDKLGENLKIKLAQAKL

Compound | IC50
COCCC(=O)N1CCN(c2nc(C(C)C)c(-c3cncc4ccccc34)cc2C#N)C[C@H]1C [Compound 234, (R)-6-isopropyl-5-(isoquinolin-4-yl)-2-(4-(3-methoxypropanoyl)-3-methylpiperazin-1-yl)nicotinonitrile] | ≤ 1000 nM
COCCC(=O)N1CCN(c2nc(C(C)C)c(-c3ccc(C)c(C)c3)cc2C#N)C[C@H]1C [Compound 220, (R)-5-(3,4-dimethylphenyl)-6-isopropyl-2-(4-(3-methoxypropanoyl)-3-methylpiperazin-1-yl)nicotinonitrile] | 1000 to 5000 nM
CC(C)c1nc(N2CCN(C(=O)Cc3ccccc3)CC2)c(C#N)cc1-c1ccccc1 [Compound 126, 6-isopropyl-5-phenyl-2-(4-(2-phenylacetyl)piperazin-1-yl)nicotinonitrile] | 1000 to 5000 nM
COCCC(=O)N1CCN(c2nc(C3CC3)c(-c3cccc(OC(F)(F)F)c3)cc2C#N)C[C@H]1C [Compound 228, (R)-6-cyclopropyl-2-(4-(3-methoxypropanoyl)-3-methylpiperazin-1-yl)-5-(3-(trifluoromethoxy)phenyl)-nicotinonitrile] | 1000 to 5000 nM
Cc1occc1C(=O)N1CCN(c2nc(C(C)C)c(-c3ccccc3)cc2C#N)C[C@H]1C [Compound 164, (R)-6-isopropyl-2-(3-methyl-4-(2-methylfuran-3-carbonyl)piperazin-1-yl)-5-phenylnicotinonitrile] | 1000 to 5000 nM
CC(C)c1nc(N2CCN(C(=O)Cc3cccs3)[C@H](C)C2)c(C#N)cc1-c1ccccc1 [Compound 165, (R)-6-isopropyl-2-(3-methyl-4-(2-(thiophen-2-yl)acetyl)piperazin-1-yl)-5-phenylnicotinonitrile] | 1000 to 5000 nM
CC1CN(c2nc(-c3ccccc3)c(-c3ccccc3)cc2C#N)CCN1C(=O)c1ccco1 (stereo not drawn) [Compound 117, 2-(4-(furan-2-carbonyl)-3-methylpiperazin-1-yl)-5,6-diphenylnicotinonitrile] | 5000 to 15000 nM
CC(C)c1cc(-c2ccccc2)c(C#N)c(N2CCN(C(=O)c3ccoc3)[C@H](C)C2)n1 [Compound 130, (R)-2-(4-(furan-3-carbonyl)-3-methylpiperazin-1-yl)-6-isopropyl-4-phenylnicotinonitrile] | 1000 to 5000 nM
CC[C@@H]1CN(c2nc(C(C)C)c(-c3ccccc3)cc2C#N)CCN1C(=O)Cc1cccs1 [Compound 174, (R)-2-(3-ethyl-4-(2-(thiophen-2-yl)acetyl)piperazin-1-yl)-6-isopropyl-5-phenylnicotinonitrile] | 1000 to 5000 nM
COc1ccccc1-c1cc(C(C)C)nc(N2CCN(C(=O)c3ccccc3)CC2)c1C#N [Compound 105, 2-(4-benzoylpiperazin-1-yl)-6-isopropyl-4-(2-methoxyphenyl)nicotinonitrile] | 1000 to 5000 nM
CC(C)c1cc(-c2cccc(F)c2)c(C#N)c(N2CCN(C(=O)c3ccoc3)CC2)n1 [Compound 115, 4-(3-fluorophenyl)-2-(4-(furan-3-carbonyl)piperazin-1-yl)-6-isopropylnicotinonitrile] | 1000 to 5000 nM
CC(C)c1cc(-c2ccccc2)c(C#N)c(N2CCN(C(=O)c3ccco3)C(c3ccccc3)C2)n1 (stereo not drawn) [Compound 155, 2-(4-(furan-2-carbonyl)-3-phenylpiperazin-1-yl)-6-isopropyl-4-phenylnicotinonitrile] | 5000 to 15000 nM
COCCC(=O)N1CCN(c2nc(C3CC3)c(-c3ccc4c(c3)OCO4)c(C)c2C#N)C[C@H]1C [Compound 261, (R)-5-(benzo[d][1,3]dioxol-5-yl)-6-cyclopropyl-2-(4-(3-methoxypropanoyl)-3-methylpiperazin-1-yl)-4-methylnicotinonitrile] | ≤ 1000 nM
COCCC(=O)N1CCN(c2nc(C3CC3)c(-c3cccc(C)c3)cc2C#N)C[C@H]1C [Compound 225, (R)-6-cyclopropyl-2-(4-(3-methoxypropanoyl)-3-methylpiperazin-1-yl)-5-m-tolylnicotinonitrile] | ≤ 1000 nM
CC(C)c1nc(N2CCN(C(=O)Cc3cccs3)[C@H](C)C2)c(C#N)cc1-c1ccc(C(F)(F)F)cc1 [Compound 188, (R)-6-isopropyl-2-(3-methyl-4-(2-(thiophen-2-yl)acetyl)piperazin-1-yl)-5-(4-(trifluoromethyl)phenyl)nicotinonitrile] | 1000 to 5000 nM
CC(C)c1cc(-c2ccccc2)c(C#N)c(N2CCN(C(=O)c3ccoc3)C(c3ccccc3)C2)n1 (stereo not drawn) [Compound 154, 2-(4-(furan-3-carbonyl)-3-phenylpiperazin-1-yl)-6-isopropyl-4-phenylnicotinonitrile] | 5000 to 15000 nM
COc1ccccc1-c1cc(C(C)C)nc(N2CCN(C(=O)Cc3ccccc3)CC2)c1C#N [Compound 146, 6-isopropyl-4-(2-methoxyphenyl)-2-(4-(2-phenylacetyl)piperazin-1-yl)nicotinonitrile] | 5000 to 15000 nM
COc1ccccc1-c1cc(C#N)c(N2CCN(C(=O)Cc3cccs3)[C@H](C)C2)nc1C(C)C [Compound 177, (R)-6-isopropyl-5-(2-methoxyphenyl)-2-(3-methyl-4-(2-(thiophen-2-yl)acetyl)piperazin-1-yl)nicotinonitril-e] | 1000 to 5000 nM
COCCC(=O)N1CCN(c2nc(-c3ccccc3)c(-c3ccccc3)cc2C#N)C[C@H]1C [Compound 240, (R)-2-(4-(3-methoxypropanoyl)-3-methylpiperazin-1-yl)-5,6-diphenylnicotinonitrile] | 1000 to 5000 nM

same assay, conditions: enzyme assay of Example 12; read-out: IDH1R132H IC50

Compound | IC50
COCCC(=O)N1CCN(c2nc(C3CC3)c(Nc3ccnc(C(N)=O)c3)cc2C#N)C[C@H]1C [Compound 729, (R)-4-(5-cyano-2-cyclopropyl-6-(4-(3-methoxypropanoyl)-3-methylpiperazin-1-yl)pyridin-3-ylamino)picolinamide] | < 500 nM
COCCC(=O)N1CCN(c2nc(C3CC3)c(-c3cnn(Cc4ccccc4)c3)c(C)c2C#N)C[C@H]1C [Compound 358, (R)-5-(1-benzyl-1H-pyrazol-4-yl)-6-cyclopropyl-2-[4-(3-methoxy-propionyl)-3-methyl-piperazin-1-yl]-4-methyl-nicotinonitrile] | < 500 nM
COCCC(=O)N1CCN(c2nc(C3CC3)c(-c3cccc(N(C)C)c3)cc2C#N)C[C@H]1C [Compound 413, (R)-6-cyclopropyl-5-(3-(dimethylamino)phenyl)-2-(4-(3-methoxypropanoyl)-3-methylpiperazin-1-yl)nicotinonitrile] | 500 to 1000 nM
COCCC(=O)N1CCN(c2nc(C3CC3)c(-c3c(C)cccc3C)cc2C#N)C[C@H]1C [Compound 357, (R)-6-cyclopropyl-5-(2,6-dimethyl-phenyl)-2-[4-(3-methoxy-propionyl)-3-methyl-piperazin-1-yl]-nicotinonitrile] | 500 to 1000 nM
COCCC(=O)N1CCN(c2nc(C3CC3)c(-c3ccccc3CCOC)cc2C#N)C[C@H]1C [Compound 338, (R)-6-cyclopropyl-5-[2-(2-methoxy-ethyl)-phenyl]-2-[4-(3-methoxy-propionyl)-3-methyl-piperazin-1-yl]-nicotinonitrile] | < 500 nM
COCCC(=O)N1CCN(c2nc(C3CC3)c(Nc3ccnc(C(=O)OC)c3)cc2C#N)C[C@H]1C [Compound 683, (R)-methyl 4-((5-cyano-2-cyclopropyl-6-(4-(3-methoxypropanoyl)-3-methylpiperazin-1-yl)pyridin-3-yl)amino)picolinate] | < 500 nM
COCCC(=O)N1CCN(c2nc(C3CC3)c(-c3ccc4cc[nH]c4c3)cc2C#N)C[C@H]1C [Compound 289, (R)-6-cyclopropyl-5-(1H-indol-6-yl)-2-(4-(3-methoxypropanoyl)-3-methylpiperazin-1-yl)nicotinonitrile] | < 500 nM
C[C@@H]1CN(c2nc(C3CC3)c(-c3cccc4cnccc34)cc2C#N)CCN1C(=O)[C@@H]1C[C@H]1CO [Compound 505, 6-cyclopropyl-2-((R)-4-((1R,2R)-2-(hydroxymethyl)cyclopropanecarbonyl)-3-methylpiperazin-1-yl)-5-(isoquinolin-5-yl)nicotinonitrile] | < 500 nM
N#Cc1cc(-c2cccc3cnccc23)c(C2CC2)nc1N1CCN(C(=O)C2CC2)C(C(F)F)C1 (stereo not drawn) [Compound 422, 2-(4-(cyclopropanecarbonyl)-3-(difluoromethyl)piperazin-1-yl)-6-cyclopropyl-5-(isoquinolin-5-yl)nicotinonitrile] | 500 to 1000 nM
COCCC(=O)N1CCN(c2nc(C3CC3)c(-c3csc(NC(=O)OC(C)(C)C)n3)cc2C#N)C[C@H]1C [Compound 395, (R)-(4-{5-cyano-2-cyclopropyl-6-[4-(3-methoxy-propionyl)-3-methyl-piperazin-1-yl]-pyridin-3-yl}-thiazol-2-yl)-carbamic acid tert-butyl ester] | 500 to 1000 nM
N#Cc1cc(-c2cccc3nccnc23)c(C2CC2)nc1N1CCN(C(=O)CC(F)(F)F)[C@H](C2CC2)C1 [Compound 532, (R)-6-cyclopropyl-2-(3-cyclopropyl-4-(3,3,3-trifluoropropanoyl)piperazin-1-yl)-5-(quinoxalin-5-yl)nicotinonitrile] | < 500 nM
C[C@@H]1CN(c2nc(C3CC3)c(-c3cccc4cnccc34)cc2C#N)CCN1C(=O)CCO [Compound 402, (R)-6-cyclopropyl-2-(4-(3-hydroxypropanoyl)-3-methylpiperazin-1-yl)-5-(isoquinolin-5-yl)nicotinonitrile] | < 500 nM
CCCOc1ccc(-c2c(C3CC3)nc(N3CCN(C(=O)CCOC)[C@H](C)C3)c(C#N)c2C)cc1 [Compound 337, (R)-6-cyclopropyl-2-[4-(3-methoxy-propionyl)-3-methyl-piperazin-1-yl]-4-methyl-5-(4-propoxy-phenyl)-nicotinonitrile] | 500 to 1000 nM
COCCC(=O)N1CCN(c2nc(C3CC3)c(-c3cccc(C(=O)N4CCCC4)c3)c(C)c2C#N)C[C@H]1C [Compound 332, (R)-6-cyclopropyl-2-[4-(3-methoxy-propionyl)-3-methyl-piperazin-1-yl]-4-methyl-5-[3-(pyrrolidine-1-carbonyl)-phenyl]-nicotinonitrile] | 500 to 1000 nM
